# Test results published in patent publication US12509444B2, “Compounds and methods for CD73 modulation and indications therefor” (Plexxikon Inc., priority 2019, dated 2025).
# pIC50: −log10 of the molar value.
# Columns and labels:
# [1] = molecular target: T1, Human CD73 (amino acid residues 27-549) (Homo sapiens, UniProt P21589); experiment: CD73 enzymatic assay (luciferase-based indirect assay, CellTiter-Glo); format: biochemical; settings: 0.4 nM CD73, 150 μM AMP, 1 hour at room temperature
# T1 construct: Human CD73 (amino acid residues 27-549); His tag (N); made in house; host or cells: E. coli
# T1 sequence (P21589 27-549): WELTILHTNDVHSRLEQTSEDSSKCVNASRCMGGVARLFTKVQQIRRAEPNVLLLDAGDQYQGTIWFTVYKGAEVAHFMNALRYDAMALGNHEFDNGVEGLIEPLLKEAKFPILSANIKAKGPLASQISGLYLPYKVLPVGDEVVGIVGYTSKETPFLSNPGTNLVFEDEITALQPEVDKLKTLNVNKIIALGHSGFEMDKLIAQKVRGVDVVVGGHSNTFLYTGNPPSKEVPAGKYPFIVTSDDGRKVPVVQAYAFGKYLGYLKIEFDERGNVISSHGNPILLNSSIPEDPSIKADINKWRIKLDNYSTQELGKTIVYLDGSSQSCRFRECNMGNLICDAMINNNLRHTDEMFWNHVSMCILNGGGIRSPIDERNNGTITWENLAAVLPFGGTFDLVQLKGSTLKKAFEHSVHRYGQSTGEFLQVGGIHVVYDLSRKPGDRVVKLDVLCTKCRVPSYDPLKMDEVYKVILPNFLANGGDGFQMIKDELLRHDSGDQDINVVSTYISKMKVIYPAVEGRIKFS
# Outline: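 Residual AMP inhibits luciferase, so luminescence reports CD73 turnover; read with CellTiter-Glo 2.0 plus 1 μM final ATP, 30 min. Reaction used 0.4 nM N-His CD73 (27-549, E. coli), 150 μM AMP, HEPES pH 7.4 with Tween 20, 1 h at room temperature. IC50 fitted by nonlinear regression.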
# human CD73 = molecular target: T2, human CD73 (Homo sapiens, UniProt P21589); experiment: Inhibitor activity against CD73 in cell based assay (CD73 expressing CHO-K1 cells); settings: CHO-K1 cells expressing human CD73, 150 μM AMP, 4 hours of incubation; read-out: CHO-K1 CELL VARIANT: CD73 IC50
# T2 construct: expressed in transfected cells
# T2 sequence (P21589 27-549): T1 sequence (P21589 27-549)
# Outline: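 Residual supernatant AMP was quantified via CellTiter-Glo luminescence (1 μM ATP added, 30 min, room temperature) after a 4 h exposure of human CD73-expressing CHO-K1 cells to 150 μM AMP plus compound, top final 10 μM, 8 points. IC50 came from nonlinear regression of percent inhibition.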
SMILES,pIC50 [1],pIC50 (human CD73)
"O=C1CC(NC(=O)O[C@@H]2CCN(c3cn[nH]c(=O)c3Cl)C2)CCN1 (stereo partly drawn) [P-0280, (R)-1-(5-chloro-6-oxo-1,6-dihydropyridazin-4-yl)pyrrolidin-3-yl (2-oxopiperidin-4-yl)carbamate]",5.00 to 9.00,5.00 to 9.00
"CN1CCC(NC(=O)O[C@@H]2CCN(c3cn[nH]c(=O)c3Cl)C2)CC1=O (stereo partly drawn) [P-0281, (R)-1-(5-chloro-6-oxo-1,6-dihydropyridazin-4-yl)pyrrolidin-3-yl (1-methyl-2-oxopiperidin-4-yl)carbamate]",5.00 to 9.00,5.00 to 9.00
"O=C(O)Cn1ncc(N2CC[C@@H](OC(=O)NC3CCC(F)(F)CC3)C2)c(Cl)c1=O [P-0282, (R)-2-(5-chloro-4-(3-(((4,4-difluorocyclohexyl)carbamoyl)oxy)pyrrolidin-1-yl)-6-oxopyridazin-1(6H)-yl)acetic acid]",5.00 to 9.00,4.00 to 5.00
"O=C(O)Cn1ncc(N2CC[C@@H](OC(=O)NC3CCC(F)(F)CC3)C2)cc1=O [P-0283, (R)-2-(4-(3-(((4,4-difluorocyclohexyl)carbamoyl)oxy)pyrrolidin-1-yl)-6-oxopyridazin-1(6H)-yl)acetic acid]",3.00 to 4.00,4.00 to 5.00
"O=C(NC1CCC(F)(F)CC1)O[C@@H]1CCN(c2cnn(CC(O)C(F)(F)F)c(=O)c2Cl)C1 (stereo partly drawn) [P-0284, (3R)-1-(5-chloro-6-oxo-1-(3,3,3-trifluoro-2-hydroxypropyl)-1,6-dihydropyridazin-4-yl)pyrrolidin-3-yl (4,4-difluorocyclohexyl)carbamate]",5.00 to 9.00,5.00 to 9.00
"NC(=O)Cn1ncc(N2CC[C@@H](OC(=O)NC3CCC(F)(F)CC3)C2)c(Cl)c1=O [P-0285, (R)-1-(1-(2-amino-2-oxoethyl)-5-chloro-6-oxo-1,6-dihydropyridazin-4-yl)pyrrolidin-3-yl (4,4-difluorocyclohexyl)carbamate]",5.00 to 9.00,4.00 to 5.00
"N#CCn1ncc(N2CC[C@@H](OC(=O)NC3CCC(F)(F)CC3)C2)c(Cl)c1=O [P-0286, (R)-1-(5-chloro-1-(cyanomethyl)-6-oxo-1,6-dihydropyridazin-4-yl)pyrrolidin-3-yl (4,4-difluorocyclohexyl)carbamate]",5.00 to 9.00,4.00 to 5.00
"O=C(NC1CCC(F)(F)CC1)O[C@@H]1CCN(c2cnn(CCO)c(=O)c2Cl)C1 [P-0287, (R)-1-(5-chloro-1-(2-hydroxyethyl)-6-oxo-1,6-dihydropyridazin-4-yl)pyrrolidin-3-yl (4,4-difluorocyclohexyl)carbamate]",5.00 to 9.00,5.00 to 9.00
"C[C@@H]1CCCC[C@@H]1NC(=O)O[C@@H]1CCN(c2cn[nH]c(=O)c2Cl)C1 [P-0288, (R)-1-(5-chloro-6-oxo-1,6-dihydropyridazin-4-yl)pyrrolidin-3-yl ((1S,2R)-2-methylcyclohexyl)carbamate]",5.00 to 9.00,5.00 to 9.00
"Cn1ncc(N2CC[C@@H](OC(=O)N[C@H]3CC[C@H](NS(=O)(=O)c4ccc(F)cc4F)CC3)C2)c(Cl)c1=O [P-0289, (R)-1-(5-chloro-1-methyl-6-oxo-1,6-dihydropyridazin-4-yl)pyrrolidin-3-yl ((1r,4R)-4-((2,4-difluorophenyl)sulfonamido)cyclohexyl)carbamate]",5.00 to 9.00,5.00 to 9.00
"O=C(N[C@H]1CC[C@@H](NC(=O)C2CCC2)CC1)O[C@@H]1CCN(c2cn[nH]c(=O)c2Cl)C1 [P-0290, (R)-1-(5-chloro-6-oxo-1,6-dihydropyridazin-4-yl)pyrrolidin-3-yl ((1s,4S)-4-(cyclobutanecarboxamido)cyclohexyl)carbamate]",5.00 to 9.00,5.00 to 9.00
"O=C(N[C@H]1CC[C@H](NS(=O)(=O)C2CCC2)CC1)O[C@@H]1CCN(c2cn[nH]c(=O)c2Cl)C1 [P-0291, (R)-1-(5-chloro-6-oxo-1,6-dihydropyridazin-4-yl)pyrrolidin-3-yl ((1r,4R)-4-(cyclobutanesulfonamido)cyclohexyl)carbamate]",5.00 to 9.00,5.00 to 9.00
"O=C(N[C@H]1CC[C@H](NS(=O)(=O)c2ccc(Cl)cc2)CC1)O[C@@H]1CCN(c2cn[nH]c(=O)c2Cl)C1 [P-0292, (R)-1-(5-chloro-6-oxo-1,6-dihydropyridazin-4-yl)pyrrolidin-3-yl ((1r,4R)-4-((4-chlorophenyl)sulfonamido)cyclohexyl)carbamate]",5.00 to 9.00,5.00 to 9.00
"Cc1ccc(S(=O)(=O)N[C@H]2CC[C@H](NC(=O)O[C@@H]3CCN(c4cn[nH]c(=O)c4Cl)C3)CC2)cc1 [P-0293, (R)-1-(5-chloro-6-oxo-1,6-dihydropyridazin-4-yl)pyrrolidin-3-yl ((1r,4R)-4-((4-methylphenyl)sulfonamido)cyclohexyl)carbamate]",5.00 to 9.00,5.00 to 9.00
"O=C(N[C@H]1CC[C@H](NS(=O)(=O)c2cccc(F)c2)CC1)O[C@@H]1CCN(c2cn[nH]c(=O)c2Cl)C1 [P-0294, (R)-1-(5-chloro-6-oxo-1,6-dihydropyridazin-4-yl)pyrrolidin-3-yl ((1r,4R)-4-((3-fluorophenyl)sulfonamido)cyclohexyl)carbamate]",5.00 to 9.00,5.00 to 9.00
"O=C(N[C@H]1CC[C@H](NS(=O)(=O)c2cccnc2)CC1)O[C@@H]1CCN(c2cn[nH]c(=O)c2Cl)C1 [P-0295, (R)-1-(5-chloro-6-oxo-1,6-dihydropyridazin-4-yl)pyrrolidin-3-yl ((1r,4R)-4-(pyridine-3-sulfonamido)cyclohexyl) carbamate]",5.00 to 9.00,5.00 to 9.00
"O=C(N[C@H]1CC[C@H](NS(=O)(=O)c2ccc3ncsc3c2)CC1)O[C@@H]1CCN(c2cn[nH]c(=O)c2Cl)C1 [P-0296, (R)-1-(5-chloro-6-oxo-1,6-dihydropyridazin-4-yl)pyrrolidin-3-yl ((1r,4R)-4-(benzo[d]thiazole-6-sulfonamido)cyclohexyl) carbamate]",5.00 to 9.00,5.00 to 9.00
"O=C(N[C@H]1CC[C@H](NS(=O)(=O)c2c(F)cccc2F)CC1)O[C@@H]1CCN(c2cn[nH]c(=O)c2Cl)C1 [P-0297, (R)-1-(5-chloro-6-oxo-1,6-dihydropyridazin-4-yl)pyrrolidin-3-yl ((1r,4R)-4-((2,6-difluorophenyl)sulfonamido)cyclohexyl)carbamate]",5.00 to 9.00,5.00 to 9.00
"O=C(N[C@H]1CC[C@H](NS(=O)(=O)c2cc(F)ccc2F)CC1)O[C@@H]1CCN(c2cn[nH]c(=O)c2Cl)C1 [P-0298, (R)-1-(5-chloro-6-oxo-1,6-dihydropyridazin-4-yl)pyrrolidin-3-yl ((1r,4R)-4-((2,5-difluorophenyl)sulfonamido)cyclohexyl)carbamate]",5.00 to 9.00,5.00 to 9.00
"O=C(N[C@H]1CC[C@H](NS(=O)(=O)c2ccsc2)CC1)O[C@@H]1CCN(c2cn[nH]c(=O)c2Cl)C1 [P-0299, (R)-1-(5-chloro-6-oxo-1,6-dihydropyridazin-4-yl)pyrrolidin-3-yl ((1r,4R)-4-(thiophene-3-sulfonamido)cyclohexyl) carbamate]",5.00 to 9.00,5.00 to 9.00
"O=C(N[C@H]1CC[C@H](NS(=O)(=O)c2cccs2)CC1)O[C@@H]1CCN(c2cn[nH]c(=O)c2Cl)C1 [P-0300, (R)-1-(5-chloro-6-oxo-1,6-dihydropyridazin-4-yl)pyrrolidin-3-yl ((1r,4R)-4-(thiophene-2-sulfonamido)cyclohexyl) carbamate]",5.00 to 9.00,5.00 to 9.00
"O=C(N[C@H]1CC[C@H](NS(=O)(=O)c2ccc(Cl)s2)CC1)O[C@@H]1CCN(c2cn[nH]c(=O)c2Cl)C1 [P-0301, (R)-1-(5-chloro-6-oxo-1,6-dihydropyridazin-4-yl)pyrrolidin-3-yl ((1r,4R)-4-((5-chlorothiophene)-2-sulfonamido)cyclohexyl) carbamate]",5.00 to 9.00,5.00 to 9.00
"Cc1noc(C)c1S(=O)(=O)N[C@H]1CC[C@H](NC(=O)O[C@@H]2CCN(c3cn[nH]c(=O)c3Cl)C2)CC1 [P-0302, (R)-1-(5-chloro-6-oxo-1,6-dihydropyridazin-4-yl)pyrrolidin-3-yl ((1r,4R)-4-((3,5-dimethylisoxazole)-4-sulfonamido)cyclohexyl) carbamate]",5.00 to 9.00,5.00 to 9.00
"COCCS(=O)(=O)N[C@H]1CC[C@H](NC(=O)O[C@@H]2CCN(c3cn[nH]c(=O)c3Cl)C2)CC1 [P-0303, (R)-1-(5-chloro-6-oxo-1,6-dihydropyridazin-4-yl)pyrrolidin-3-yl ((1r,4R)-4-((2-methoxyethyl)sulfonamido)cyclohexyl)carbamate]",5.00 to 9.00,5.00 to 9.00
